Data taken from US8809386B2, “Use of dynamin ring stabilizers” (Children's Medical Research Institute, priority 2009, dated 2014).

Target: T1, full length dynamin I (Ovis aries, UniProt A0ACI6NZN1)
T1 sequence (A0ACI6NZN1 1-864): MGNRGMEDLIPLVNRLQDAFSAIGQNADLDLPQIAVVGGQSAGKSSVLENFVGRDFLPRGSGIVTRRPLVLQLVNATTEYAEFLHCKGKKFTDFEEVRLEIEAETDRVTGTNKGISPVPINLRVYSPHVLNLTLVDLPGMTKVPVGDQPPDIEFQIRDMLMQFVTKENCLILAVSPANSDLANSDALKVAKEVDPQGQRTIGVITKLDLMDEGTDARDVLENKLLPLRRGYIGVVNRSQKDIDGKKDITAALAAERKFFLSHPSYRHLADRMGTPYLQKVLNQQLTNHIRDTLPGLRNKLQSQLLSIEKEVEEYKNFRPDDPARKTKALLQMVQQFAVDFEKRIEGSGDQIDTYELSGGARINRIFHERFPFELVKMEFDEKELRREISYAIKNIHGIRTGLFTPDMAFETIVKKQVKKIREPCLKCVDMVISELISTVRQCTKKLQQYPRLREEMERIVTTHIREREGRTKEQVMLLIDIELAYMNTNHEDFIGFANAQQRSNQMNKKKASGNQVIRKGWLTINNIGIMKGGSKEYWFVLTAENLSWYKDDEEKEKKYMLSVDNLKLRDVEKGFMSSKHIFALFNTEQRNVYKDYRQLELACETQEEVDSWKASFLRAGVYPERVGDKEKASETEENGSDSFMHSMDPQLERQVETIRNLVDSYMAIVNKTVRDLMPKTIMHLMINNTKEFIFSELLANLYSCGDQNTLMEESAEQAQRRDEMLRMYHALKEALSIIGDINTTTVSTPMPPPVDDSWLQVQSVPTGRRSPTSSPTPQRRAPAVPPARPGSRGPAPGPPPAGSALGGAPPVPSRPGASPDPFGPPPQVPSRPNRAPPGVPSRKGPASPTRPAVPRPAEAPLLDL
Assay: Basal dynamin GTPase activity in the absence of PS liposomes or other template (ring stabilizer activity)
Format: biochemical, sheep
Protocol: The compounds were present at the indicated concentrations and the concentration causing half-maximal stimulation is shown as the EC50.
Dynamin I (50 nM) GTPase stimulation was performed in the absence of the detergent Tween-80 (and in the absence of any known activators such as PS liposomes, nanotubes or microtubules). […] The GTPase activity of dynamin I (dynI; 200 nM) was measured in the absence of lipid activators (and in the presence of standard Tween-80 at 0.06%).
A compound (whether a dynamin inhibitor or not) can be identified as a dynamin ring stabilizer by assaying for its capacity to promote accumulation of dynamin rings and/or to inhibit disassembly of dynamin rings. […] GTPase activity of dynamin or dynamin rings can be determined by any conventionally known method (e.g., see Quan and Robinson. 2005). Such conditions include: (a) the absence of a helix assembly template such as liposomes, microtubules or lipid nanotubes, and (b) higher concentrations of dynamin than normally required for detecting template stimulated activity, typically 50-500 nM dynamin instead of 1-20 nM. Thus, ring stabilizer activity can be identified by the ability to stimulate the GTPase activity of full length dynamin in the absence of other stimulatory factors (such as PS liposomes, microtubules or nanotubes). Additional defining characteristics are available but are not essential if the first condition has been met. One such additional characteristic of ring stabilizer activity is that the stimulated activity occurs after a lag phase of a few minutes, rather than being an immediate activation in vitro. […] Such conditions typically mean utilising 50-200 nM dynamin in the absence of a template as distinct from higher concentrations where self-assembly is known to occur without the addition of a dynamin ring stabilizer.
Next, a time course experiment of Bis-T-23 stimulation of dynamin GTPase (FIG. 3) was conducted. […] The lag phase is thought to indicate the time required for dynamin to assemble as rings.

## N#CC(=Cc1cc(O)c(O)c(O)c1)C(=O)NCCCNC(=O)C(C#N)=Cc1cc(O)c(O)c(O)c1 [Bis-T-23, 2-cyano-N-{3-[2-cyano-3-(3,4,5-trihydroxyphenyl)-acryloylamino]-propyl}-3-(3,4,5-trihydroxyphenyl)-acrylamide]
5 μM, 800 nM dynamin, 30 mM NaCl, FIG. 3
  lag phase before stimulation of dynamin GTPase activity: about 4 minutes
Dynamin I 50 nM, no Tween-80, no activators, FIG. 11A
  stimulation of basal dynamin GTPase activity in the absence of Tween-80: are dynamin ring stabilizers
FIG. 2, compared with IC50 of 500 nM
  concentration causing 50% activation of basal dynamin activity (EC50): about the same value
Absence of liposomes, 5 μM, FIG. 1
  dynamin concentration at which basal GTPase activity is stimulated: ≥ 100 nM
